Laboratory results published in US10265378B2, “Combination therapy for head and neck cancer” (Cornell University, priority 2014, dated 2019).

Columns and labels:
[1] = tested on: β-catenin; experiment: Immunohistochemistry of tongue epithelium: β-catenin; type: in vivo, mouse; conditions: compared to the 4-NQO group; antibody staining
Description: (§1) Immunohistochemistry. Paraffin embedded tongue sections were stained with various antibodies (supporting information).
(§2) Immunohistochemistry. Paraffin-embedded sections (from two to four mice per group) were deparaffinized and rehydrated, and antigen retrieval was performed using an antigen unmasking solution (Vector Laboratories, H-3300). After quenching endogenous peroxidase with 3% H2O2, the tissue sections were blocked with the blocking reagent (from the M.O.M. kit from Vector Laboratories for 4-HNE) or 10% goat serum (Vector Laboratories). Then, tissue sections were incubated with a 4-HNE antibody (1:700; mouse monoclonal antibody; Abcam, ab48506), a β-catenin antibody (1:400; rabbit polyclonal antibody; Abcam, ab6302), or a MMP9 antibody (1:70; rabbit polyclonal antibody; Abcam, ab38898), respectively, overnight at 4° C. The sections were then incubated with secondary antibodies (1:200, anti-mouse IgG from the M.O.M kit for 4-1-INE; ready-to-use anti-rabbit IgG from the Invitrogen SuperPicture kit for β-catenin and MMP9). As a negative control, sections were stained without incubation with primary antibodies. The signals were visualized based on a peroxidase detection mechanism with 3,3-diaminobenzidine (DAB) used as the substrate. Four to five representative areas of each mouse tongue section from two to four mice per group were photographed and analyzed.

[2] = tested on: mouse tongue mRNA transcriptome; experiment: RNA-Seq analysis of the mRNA transcriptome of mouse tongues; type: in vivo; conditions: compared to the 4-NQO group
Description: RNA-Seq analysis of the mRNA transcriptome. One part of each mouse tongue (same position on each mouse tongue) was snap frozen in liquid N2 and stored at −70° C. until total RNA extraction. Total tissue RNA was extracted and subjected to Next-Generation Sequencing (RNA-Seq) at the Genomics Resources Core Facility, Weill Cornell Medical College. Bioinfomatics analyses were performed using the Tophat and Cufflink software. (supporting information).
RNA-Seq analysis of mRNA transcriptome. […] The GEO Accession number is GSE54246; embargoed until publication.

[3] = tested on: pathways (Reactome, KEGG, MouseCyc) in mouse tongue; experiment: Pathway enrichment analysis (ConsensusPathDB) of RNA-Seq data
Description: RNA-Seq analysis of mRNA transcriptome. Representative tongue samples were chosen for the RNA-Seq analysis: untreated (n=5), 4-NQO treatment group (n=3), 4N+B (n=4), 4N+C (n=4), and 4N+B+C (n=5). The extraction of total cellular RNA from mouse tissues was carried out using the RNeasy kit (Qiagen). Subsequent RNA preparation steps were carried out at the Genomics Resources Core Facility of WCMC. The measurement of RNA integrity was determined using the Agilent 2100 BioAnalyzer (Agilent Technologies). Samples with RNA integrity number (RIN) values of 10 were used to construct cDNA libraries. mRNA was purified by using pre-prepared Sera-mag Magnetic Oligo(dT) Beads from Illumina Inc. (SanDiego, Calif.), subjected to thermal fragmentation, and reverse transcribed to first strand cDNA. Following the removal of mRNA strands by RNaseH, first strand cDNAs were used as templates to produce double strand cDNAs, and the overhangs resulting from fragmentation were repaired to blunt ends. An ‘A’ base was added to the 3′ end of cDNAs and subsequently the cDNAs were ligated to Illumina paired end (PE) adaptors that have a single ‘T’ base overhang at their 3′ end. The cDNA-adaptor libraries were purified and enriched by 15 cycles of PCR. The enriched libraries were hybridized to a flow cell and amplified, resulting in ultra-high density flow cells with millions of clusters, each containing about 1,000 copies of the templates. The double stranded cDNA-adaptors were denatured and converted into single strand DNA, and then the template cDNAs were amplified one more time isothermally to produce surface-bound colonies. The clonal DNA clusters were linearized, free 3′ OH ends blocked, denatured, hybridized to sequencing primers, and sequenced. The sequencing was conducted by running 4 samples per lane with 51 pair-end cycles on the HISeq2000/1000. The Sequencing-by-Synthesis process used reversible terminators and a DNA polymerase modified to accept reversible terminator nucleotides. After each synthesis cycle the fluorescence of clusters was imaged with high sensitivity. Then the sequencing images were analyzed in three steps, image analysis, base calling, and sequence analysis. The Tophat software was used to align raw sequencing reads against the UCSC mm9 mouse reference genome, and Cufflinks software was employed to measure transcript abundances in the unit of fragments per kilobase of exon model per million mapped reads (FPKM), as well as to perform statistical analysis on the changes in gene expression. The heat maps for genes of interest were generated by R package software.

[4] = tested on: IL-6; experiment: Immunohistochemistry of tongue epithelium: IL-6; type: in vivo, mouse; conditions: compared to the 4-NQO group; antibody staining
Excerpt: (§3) The tongues were fixed, embedded in paraffin, and sectioned. Then the tissue sections were stained with various antibodies (magnification, 200×). Four to five representative areas of each tongue section from two to four mice/group were photographed and analyzed (FIGS. 12A and 12B). Interleukin-6 (IL-6) is a multifunctional cytokine that is involved in the regulation of immune responses and cellular functions. IL-6 levels are enhanced in human oral squamous cell carcinoma and IL-6 is considered a bad prognostic factor in this cancer (Expert Opin Ther Targets. 2013 January; 17(1):53-9). IL-6 protein was detected primarily in the basal layer of tongue epithelium in the UNT samples (FIG. 12A, arrows), but in the 4-NQO treated samples we observed both an increase in the protein level and an expansion of IL-6 signal to the suprabasal layers of the tongue epithelium (FIG. 12A).

[5] = Consumption of drug containing drinking water and diet; type: in vivo, mouse; conditions: 4-NQO treated mice, 15 week post 4-NQO treatment
Excerpt: Drug treatments reduce tongue tumor development. All of the mice tolerated the 10 week 4-NQO treatment, and almost all of the mice survived the 15 week post 4-NQO treatment period (A). We determined that the CD1530 in the regular drinking water was stable for at least 7 days at room temperature by HPLC analysis (FIG. 7); thus, we decided to use drinking water as a delivery method because this method is effective and less laborious.

[6] = tested on: 4-hydroxynonenal (4-HNE), marker of oxidative stress; experiment: Immunohistochemistry of tongue epithelium: 4-HNE; type: in vivo, mouse; conditions: compared to the 4-NQO group; antibody staining
Description: as §1, §2

[7] = Mouse serum triglyceride level measurements; type: in vivo; conditions: treatment for 15 weeks; compared to the UNT group
Description: Mouse serum triglyceride level measurements. Blood samples from the mice were obtained from mouse tails. The analysis of serum triglyceride levels was carried out at the Laboratory of Comparative Pathology of the Memorial Sloan-Kettering Cancer Center. UNT (n=4); 4-NQO (n=3); 4N+B (n=4); 4N+C (n=3), and 4N+B+C (n=4).

[8] = tested on: GO categories in mouse tongue; experiment: Gene ontology (GO) analysis of RNA-Seq data; type: in vivo; conditions: compared to the 4-NQO group
Description: Gene ontology (GO) analysis. Gene ontology (GO) analysis (p-value cutoff: 0.00001), using the ConsensusPathDB online tool, was conducted on the Gene Ontology level 3 of the “Biological Process” domain that has predefined, functional sets for enrichment analysis with default parameter settings.

[9] = tested on: MCT4; experiment: Immunohistochemistry of tongue epithelium: MCT4; type: in vivo, mouse; conditions: compared to the 4-NQO group; antibody staining
Excerpt: as §3

[10] = tested on: tongue lesions (4-NQO induced oral cavity carcinogenesis); experiment: 4-NQO mouse oral cavity carcinogenesis model: gross tongue lesion number and severity
[11] = down-regulated vs. 4-NQO group, KEGG
[12] = down-regulated vs. 4-NQO group, Reactome
[13] = upregulated vs. 4-NQO group, KEGG

C=C(c1ccc(C(=O)O)cc1)c1cc2c(cc1C)C(C)(C)CCC2(C)C [bexarotene]
β-catenin protein levels in the tongue epithelium [1]: lower β-catenin protein levels | transcript levels of DNA replication genes (MCM 2-7 and 10, DNA2, LIG1, ORC1, POLA1, PRIM2) [2]: significantly lower transcript levels of the majority of these genes | number of genes with decreased transcript levels ([2]; p<0.05): 614 | number of genes with increased transcript levels ([2]; p<0.05): 436 | number of genes with significantly different transcript levels ([2]; p<0.05): 1050 | candidates contained, pathway Cell cycle-Mus musculus (mouse) [3, 11]: 19 (15.0%) | candidates contained, pathway Complement and coagulation cascades-Mus musculus (mouse) [3, 11]: 21 (27.6%) | candidates contained, pathway Retinol metabolism-Mus musculus (mouse) [3, 11]: 14 (17.7%) | candidates contained, pathway Activation of ATR in response to replication stress [3, 12]: 10 (26.3%) | candidates contained, pathway Activation of the pre-replicative complex [3, 12]: 9 (31.0%) | candidates contained, pathway Cell Cycle [3, 12]: 46 (15.1%) | candidates contained, pathway Cell Cycle Checkpoints [3, 12]: 16 (20.8%) | candidates contained, pathway Cell Cycle, Mitotic [3, 12]: 44 (16.4%) | candidates contained, pathway Common Pathway [3, 12]: 6 (46.2%) | candidates contained, pathway DNA Replication [3, 12]: 34 (21.7%) | candidates contained, pathway DNA Replication Pre-Initiation [3, 12]: 10 (27.8%) | candidates contained, pathway Formation of Fibrin Clot (Clotting Cascade) [3, 12]: 10 (29.4%) | candidates contained, pathway G1/S Transition [3, 12]: 12 (19.4%) | candidates contained, pathway G2/M Checkpoints [3, 12]: 13 (28.9%) | candidates contained, pathway HDL-mediated lipid transport [3, 12]: 7 (41.2%) | candidates contained, pathway Hemostasis [3, 12]: 37 (12.3%) | candidates contained, pathway Lipid digestion, mobilization, and transport [3, 12]: 11 (22.4%) | candidates contained, pathway Lipoprotein metabolism [3, 12]: 11 (35.5%) | candidates contained, pathway M Phase [3, 12]: 22 (22.2%) | candidates contained, pathway M/G1 Transition [3, 12]: 10 (27.8%) | candidates contained, pathway Metabolism of amino acids and derivatives [3, 12]: 21 (16.9%) | candidates contained, pathway Mitotic G1-G1/S phases [3, 12]: 14 (19.2%) | candidates contained, pathway Mitotic M-M/G1 phases [3, 12]: 32 (23.7%) | candidates contained, pathway Mitotic Prometaphase [3, 12]: 21 (22.1%) | candidates contained, pathway Phenylalanine and tyrosine catabolism [3, 12]: 5 (62.5%) | candidates contained, pathway Platelet degranulation [3, 12]: 15 (23.4%) | candidates contained, pathway Response to elevated platelet cytosolic Ca2+ [3, 12]: 15 (21.4%) | candidates contained, pathway Calcium signaling pathway-Mus musculus (mouse) [3, 13]: 15 (8.4%) | candidates contained, pathway Gastric acid secretion-Mus musculus (mouse) [3, 13]: 10 (13.7%) | IL-6 protein levels in the tongue epithelium [4]: lower IL-6 protein levels | consumption of drug containing diet vs regular diet [5]: comparable | 4-HNE levels in tongue samples [6]: lower | serum triglyceride levels [7]: did not change serum triglyceride levels significantly | GO categories related to cell cycle, DNA replication, and mitosis [8]: most under-expressed | MCT4 protein levels in the tongue epithelium [9]: lower MCT4 protein levels | number of tongue lesions (gross tongue lesion multiplicity) ([10]; C57BL/6 female mice, 4-NQO 10 weeks, then drug in 15 week post 4-NQO period, bexarotene 300 mg/kg diet, CD1530 […]100 ml drinking water, 4-NQO group 5.9±3.2): 5.3±1.4 | average severity of tongue lesions (grade 0-4) ([10]; same model, 4-NQO group 2.8±0.8): 1.9±1.2 | lesions at grade 1 ([10]; same model, 4-NQO group all lesions at or greater than grade 2): 50%
